One series concerns HDACs 1-11. Put plainly: HDAC fluorimetric assay. It is filed as biochemical. To be noted: for histone deacetylase activity in the presence of the substrate: FIG. 21, BPS#3 as control. As to the method: Material: Assay buffer, Assay developer, HDAC substrate
(§1) Source: BPS Bioscience, Inc.
Add reaction mixtures to low binding black plate. These include: HDAC assay buffer, Bovine serum albumin solution, HDAC substrate, and HDAC enzymes.
Incubate at 37° C. for 30 minutes.
(§2) Stop the reaction by addition of HDAC Assay developer (2×) and incubate plate at room temperature for 15 minutes.
(§3) Read sample in a microtiter-plate reading fluorimeter at excitation wavelength in the range of 350-380 nm and detect in emission range of 440-460 nm.

The subject of a further series is sirtuins 1-5. Put plainly: Sirtuin fluorimetric assay. It is filed as biochemical. As to the method: Sirtuin Fluorimetric Assay
Material: substrate available from manufacturer
as §1
Add reaction mixtures to low binding black plate. These include: Sirtuin, HDAC assay buffer, Bovine serum albumin solution, NAD+ solution and Sirtuin substrate.
Incubate at 37° C. for 30 minutes
as §2, §3

The subject of another series is MB435 tumor xenografts. Briefly: PET of [18F]-FAHA in MB435 tumor xenograft-bearing nude rats (second Example 4). It is filed as in vivo, rat. The method, then: Methods: [^18F]-FAHA was synthesized with high specific activity according to a method developed at M. D. Anderson Cancer Center. Human breast cancer cells, cell line MB435, grown as described in Example 3, were used to grow tumor xenografts in nude rats. Ten million cancer cells were injected subcutaneously in the neck area of six nude rats. When tumors were 1 cm in diameter, animals were anesthetized, injected with [^18F]-FAHA (37 MBq) and PET imaging was performed (dynamic) up to 60 min post-injection. Two days after the initial imaging, another PET imaging with [^18F]-FAHA was performed using a […] (SAHA). The animals were given SAHA (50 mg/kg) intraperitoneally 1 hour prior to injection of the radiotracer.

Series [1] has as its system MDA-MB435 human breast carcinoma cells. Put plainly: In vitro uptake study of [18F]-FAHA in human breast carcinoma cell line. Type of series: cell-based. The method, then: MDA-MB435 human breast carcinoma cells were grown into flasks with D-MEM/F-12 medium supplemented with 10% FBS and antibiotics at 37° C. in humidified atmosphere with 5% CO2. Cells were kept in the log phase proliferative activity. 5×10^6 of cells in 15 mL of medium were distributed into each tissue culture dish and were incubated at least for 24 hours.
Next day, culture medium was replaced to fresh medium again and was incubated for 3 hours. Then […] of [^18F]-FAHA in […] of saline was added to each dish followed by incubation for 5, 10, 15, 30, 60, and 120 min. At each time point, cells were scraped and were centrifuged at 3,000 rpm for 1 min. After centrifugation, […] of supernatant medium and cells were weighed and their radioactivity measured using a gamma counter. Then the ratio of radioactivity between 1 gram of cells and 1 gram of medium was calculated.
For an inhibition study, cells were incubated in medium with […] of SAHA from 1 hour before adding [^18F]-FAHA.

Series [2] concerns HDAC activity in rat brain. Briefly: PET imaging of HDAC activity in rat brain using [18F]-FAHA (Example 6). Type of series: in vivo. The method, then:
Methods: [^18F]-FAHA was synthesized according to the methods developed in our laboratory in high specific activity. Imaging studies with [^18F]-FAHA were conducted in five rats using a PET scanner under isoflurane inhalation anesthesia. The animals were injected intravenously with 37 MBq of [^18F]-FAHA and dynamic scanning PET (0-60 min) was performed. During the imaging session, the rats were anesthetized with 1-1.5 vol % isoflurane/oxygen inhalation and continuously heated with a heating lamp. Two days after the initial study, another PET imaging was performed with [^18F]-FAHA using an […] (SAHA). Each animal was given SAHA (50 mg/kg), intraperitoneally 1 hour prior to injection of the [^18F]-FAHA.
In Table 6, “baseline” refers to brain uptake of FAHA without blocking by SAHA.

In series [3] the test system is MB435 human breast carcinoma tumor. Put plainly: PET of [18F]-FAHA in MB435 carcinoma-bearing nu/nu rats, with Gjedde-Patlak analysis (Example 5). It is filed as in vivo, rat. As to the method: MB435 human breast carcinoma cells were grown as described in Example 3, above. About 10×10^6 MB435 cells were injected subcutaneously in female nu/nu rat. When tumor size was 15 mm in diameter, PET imaging studies with [^18F]-FAHA were conducted in five rats using microPET R4 (Concorde). The animals were injected intravenously with […] (1mCi) of [^18F]-FAHA and dynamic scanning (0-60 min) was performed. During the imaging session the rats were anesthetized with 2.0 vol % isoflurane/oxygen inhalation and continuously heated with a heating lamp.
Two days after the initial study, another [^18F]-FAHA PET imaging with an […] (SAHA) was performed. The animals were given SAHA (100 mg/kg) intraperitoneally 1 hour prior to injection of the [^18F]-FAHA.
Both a Gjedde-Patlak plot and a Logan plot were taken. […] The linearity of the plot was checked and a plasma/reference region used as an input. […]

Setting [4] is: 30 min post-injection, with SAHA 50 mg/kg i.p. 1 hour prior.
Setting [5] is: 30 min post-injection, without SAHA.
Where [6] appears, read: 60 min post-injection, with SAHA 50 mg/kg i.p. 1 hour prior.
Where [7] appears, read: 60 min post-injection, without SAHA.
Setting [8] is: during 60 min post-injection, without SAHA.
Setting [9] is: 5 min post-injection, without SAHA.

`O=C(CCCCCNC(=O)C(F)(F)F)Nc1ccccc1` [3FAHA, 6-(trifluoroacetamido)-1-hexanoicanilide]: the “qualitative rank of the specificity of various HDACs for the substrate” value in the series on HDACs 1-11 is “HDAC-9>HDAC-7>HDAC-5>HDAC-8>HDAC-4>HDAC-11”.

As for `O=C(CF)NCCCCCC(=O)Nc1ccccc1` [FAHA, 6-(fluoroacetamido)-1-hexanoicanilide], in the series on HDACs 1-11, the “qualitative rank of the specificity of various HDACs for the substrate” value is recorded as “HDAC-9>HDAC-5>HDAC-8>HDAC-4>HDAC-6>HDAC-1”.

As for `CC(C)CC(=O)NCCCCCC(=O)Nc1ccccc1` [Iso-PAHA, 6-(isopropylacetamido)-1-hexanoicanilide], in the series on HDACs 1-11, the “histone deacetylase activity in the presence of the substrate” value (“histone deacetylase activity” for short) was “inhibited the activity of all HDACs”. Further, the “qualitative rank of the specificity of various sirtuins (and HDAC-3) for the substrate” value with sirtuins 1-5 is “Sirt-2>Sirt-5>Sirt-4>Sirt-3>Sirt-1”.

As to `CCCC(=O)NCCCCCC(=O)Nc1ccccc1` [PAHA, 6-(ethylacetamido)-1-hexanoicanilide], the “histone deacetylase activity” value with HDACs 1-11 is listed as “inhibited the activity of all HDACs”. Also, in the series on sirtuins 1-5, the “qualitative rank of the specificity of various sirtuins (and HDAC-3) for the substrate” value is “Sirt-2>Sirt-5>Sirt-4>Sirt-3>Sirt-1 >>HDAC-3”.

Take `O=C(Cc1ccccc1)NCCCCCC(=O)Nc1ccccc1` [PhAHA, 6-(phenylacetamido)-1-hexanoicanilide]: the “histone deacetylase activity” value in the series with HDACs 1-11 was “inhibited the activity of all HDACs”. Further, the “qualitative rank of the specificity of various sirtuins (and HDAC-3) for the substrate” value in the series on sirtuins 1-5 is given as “Sirt-2 >>Sirt-3>Sirt-4>Sirt-5>Sirt-1”.

For the compound `O=C(C[18F])NCCCCCC(=O)Nc1ccccc1` [[^18F]-FAHA, 6-([^18F]-fluoroacetamide)-1-hexanoicanilide], the Tumor uptake with MB435 tumor xenografts (setting [4]) was found to be 0.70 ± 0.04 % ID/g; in the series on MB435 tumor xenografts (setting [5]) it was 0.78 ± 0.13 % ID/g; in the series on MB435 tumor xenografts (setting [6]), 0.71 ± 0.02 % ID/g; in the series on MB435 tumor xenografts (setting [7]), 0.79 ± 0.13 % ID/g. In addition, the “tumor-to-muscle (T/M) ratio” value with MB435 tumor xenografts (setting [4]) is 1.52 ± 0.13; with MB435 tumor xenografts (setting [5]) it was 1.80 ± 0.17; in the series with MB435 tumor xenografts (setting [6]), 1.64 ± 0.10; in the series with MB435 tumor xenografts (setting [7]), 1.95 ± 0.19. The tumor uptake achieved entry with MB435 tumor xenografts (setting [8]) is on record as “approximately 0.8 % injected dose (ID)/g”. Also, in the series with MB435 tumor xenografts (setting [8]), the “tumor-to muscle ratio reached” value is 1.95. In addition, the “ratio of radioactivity between 1 gram of cells and 1 gram of medium” value in series [1] (Baseline, 5 min) is on record as 1.95 +/− 0.13; in series [1] (Baseline, 10 min), 2.09 +/− 0.15; in series [1] (Baseline, 15 min), 2.11 +/− 0.12; in series [1] (Baseline, 30 min) it was 2.02 +/− 0.11; in series [1] (Baseline, 60 min), 1.84 +/− 0.14; in series [1] (Baseline, 120 min), 1.38 +/− 0.12. The “ratio of radioactivity between 1 gram of cells and 1 gram of medium” value in series [1] (Inhibition: 10 mM of SAHA from 1 hour before [18F]-FAHA, 5 min) was 1.16 +/− 0.03; in series [1] (Inhibition: 10 mM of SAHA from 1 hour before [18F]-FAHA, 10 min) it was 1.16 +/− 0.01; in series [1] (Inhibition: 10 mM of SAHA from 1 hour before [18F]-FAHA, 15 min), 1.16 +/− 0.03; in series [1] (Inhibition: 10 mM of SAHA from 1 hour before [18F]-FAHA, 30 min) it was 1.16 +/− 0.04; in series [1] (Inhibition: 10 mM of SAHA from 1 hour before [18F]-FAHA, 60 min) it was 1.15 +/− 0.01; in series [1] (Inhibition: 10 mM of SAHA from 1 hour before [18F]-FAHA, 120 min) it was 1.13 +/− 0.02. Further, the Brain uptake was determined as 0.33 ± 0.05 % ID/g in series [2] (5 min post-injection, with SAHA 50 mg/kg i.p. 1 hour prior); 0.44 ± 0.03 % ID/g in series [2] (setting [9]); 0.23 ± 0.04 % ID/g in series [2] (setting [6]); 0.40 ± 0.03 % ID/g in series [2] (setting [7]). The “brain-to-muscle (B/M) ratio” value in series [2] (setting [9]) amounted to 2.56 ± 0.33; in series [2] (setting [6]), 1.03 ± 0.08; in series [2] (setting [7]), 2.10 ± 0.63. For the same compound, in series [2] (at 5 min post-injection, without SAHA), the “brain-to muscle ratio reached” value is recorded as 1.95. This compound displayed a brain uptake reached in series [2] (without SAHA) of 0.44 % injected dose/g. Besides, the Tumor-to-muscle uptake ratio in series [3] (Baseline, 5 min) is recorded as 2.01 +/− 0.57; in series [3] (Baseline, 10 min) it was 2.05 +/− 0.76; in series [3] (Baseline, 15 min), 2.08 +/− 0.83; in series [3] (Baseline, 30 min), 2.20 +/− 0.95; in series [3] (Baseline, 60 min) it was 2.38 +/− 1.11; in series [3] (Inhibition: SAHA 100 mg/kg i.p. 1 hour prior, 5 min), 1.43 +/− 0.15. The Tumor-to-muscle uptake ratio in series [3] (Inhibition: SAHA 100 mg/kg i.p. 1 hour prior, 10 min) is 1.50 +/− 0.15; in series [3] (Inhibition: SAHA 100 mg/kg i.p. 1 hour prior, 15 min), 1.46 +/− 0.16; in series [3] (Inhibition: SAHA 100 mg/kg i.p. 1 hour prior, 30 min) it was 1.47 +/− 0.12; in series [3] (Inhibition: SAHA 100 mg/kg i.p. 1 hour prior, 60 min) it was 1.47 +/− 0.11.

The values are drawn from patent publication US20100278730A1, “Non-Invasive Molecular Imaging of Cellular Histone Deacetylase Substrate Using Magnetic Resonance Spectroscopy (MRS) or Positron Emission Tomography (PET)” (priority 2007, published 2010).
